Experimental data taken from patent US20260315604A1, “OTUB1 Small-Molecule Binders and OTUB1-recruiting Deubiquitinase-targeting Chimeras (DUBTACs)” (ICAHN SCHOOL OF MEDICINE AT MOUNT SINAI, priority 2023, published 2026).

These compounds were tested against T1, Human OTUB1 wild-type (Homo sapiens, UniProt Q96FW1) (assay: Covalent modification of OTUB1 (adduct formation), mass spectrometry-based assay (OTUB1 covalent binders; selected CFTR or cGAS based bivalent compounds)). Settings: covalent adduct formation with OTUB1 protein.
T1 construct: His tag (N); made in house; host or cells: E. coli BL21-CodonPlus (DE3)-RIPIL
T1 sequence (Q96FW1 whole entry): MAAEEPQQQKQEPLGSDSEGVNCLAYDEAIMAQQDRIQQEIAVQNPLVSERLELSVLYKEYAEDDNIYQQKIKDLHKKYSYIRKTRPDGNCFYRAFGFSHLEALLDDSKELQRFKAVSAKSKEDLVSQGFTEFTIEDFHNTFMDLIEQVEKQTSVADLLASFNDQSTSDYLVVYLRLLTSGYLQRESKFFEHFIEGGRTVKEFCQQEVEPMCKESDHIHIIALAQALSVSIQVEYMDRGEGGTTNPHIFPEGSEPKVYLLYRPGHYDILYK
Assay type: binding
Method: OTUB1 covalent binders were tested for their ability to form the covalent adduct with OTUB1 protein using a mass-spectrometry based assay.
Example 389. Assessment of the Covalent Modification of OTUB1 Protein by Selected OTUB1 Covalent Binders Using a Mass Spectrometry-Based Assay (FIG. 1)
OTUB1 protein (10 μM) was incubated with selecting compounds (2500 μM) at RT for 1 h. The adduct was qualified by mass spectrometry-based assays.
Example 398. Assessment of the Covalent Modification of OTUB1 Protein by Selected CFTR Based Bivalent Compounds Using Mass Spectrometry-Based Assay (FIG. 10)
OTUB1 protein (10 μM) was incubated with selecting bivalent compounds (2500 μM) at RT for 1 h. The adduct was qualified by mass spectrometry-based assays.
Human OTUB1 wild-type (NM_017670.3) and C23S mutation genes were optimized based on the codon preference of E. coli, synthesized and cloned into pET15b vector with a N-terminal His tag by Genscript, respectively. The plasmid was transferred to BL21-CodonPlus (DE3)-RIPIL Competent Cell (230280, Agilent Technologies) and the recombinant protein was induced expressed by 0.5 mM IPTG at 16° C. with shaking 200 rpm for 18 h. Induced cells were harvested by centrifugation and resuspended in cold lysis buffer (50 mM Tris-H—Cl pH 7.5, 150 mM NaCl, 25 mM imidazole pH 7.5, 0.01% IGEPAL, 5% Glycerol) in the presence of Pierce Protease Inhibitor tablets (PIA32963, Fisher Scientific) and 2 mM TCEP pH 7.5.
The cells were lysed by sonication, clarified by centrifugation, and the filtered supernatant loaded onto a 5 ml HisTrap HP affinity column (17524802, Cytiva) in AKTA system. The His-recombinant protein bound to column was washed using buffer A (50 mM Tris-HCl pH 7.5, 150 mM NaCl, 25 mM imidazole pH 7.5, 0.01% IGEPAL, 5% Glycerol) and eluted with buffer B (50 mM Tris-HCl pH 7.5, 150 mM NaCl, 250 mM imidazole pH 7.5, 0.01% IGEPAL, 5% Glycerol). The eluted fractions containing OTUB1 protein were concentrated and subjected to size exclusion chromatography using a 320 mL HiLoad 26/600 Superdex 200 pg column (28989336, Cytiva) under the buffer condition ([…] Tris-HCl pH 7.5, 150 mM NaCl, and 2 mM TCEP pH 7.5). The eluted fractions containing OTUB1 protein were concentrated, divided into aliquots and stored at −80° C. freezer for further usage.
Quality control of the OTUB1 proteins was performed by SDS-PAGE, Nanodrop and mass spectrometry.
Mass Spectrometry-Based Analysis of OTUB1-Covalent Ligand Adducts
To screen the covalent ligands, recombinant OTUB1 protein (10 μM) was respectively incubated with DMSO, EN523 or seven novel ligands (2500 μM) in reaction buffer (50 mM Tris-HCl pH 7.5, 150 mM NaCl, and 0.5 mM TCEP pH 7.5) for 1 h at room temperature.
Then, the total 500 μL reaction solution was exchanged and concentrated to 50 μL 50 mM ammonium bicarbonate with a 10 kDa MWCO centrifugal filter unit (UFC901024, Millipore) and diluted in MS buffer (30% ACN, 0.2% FA) to a final concentration of […]. Mass spectrometry detection was performed by an Agilent LC/MSD Time-Of-Flight (TOF) mass spectrometer (Agilent Technologies) equipped with an electrospray ion source. The data was analyzed by TOF Protein Confirmation Software. All experiments were performed in duplicate.

SMILES	% of OTUB1 modified [%]
C=CC(=O)N1CCN(c2ncc(C)s2)C(=O)C1 [XS154-148, 4-acryloyl-1-(5-methylthiazol-2-yl)piperazin-2-one]	39
C=CC(=O)N1CCN(c2cnc(C)s2)C(=O)C1 [XS154-184, 4-acryloyl-1-(2-methylthiazol-5-yl)piperazin-2-one]	<5
CN(C)C/C=C/C(=O)N1Cc2ccccc2C1 [XS197-186, (E)-4-(dimethylamino)-1-(isoindolin-2-yl)but-2-en-1-one]	15
Cc1cccc(N2CCN(C(=O)C#C[Si](C)(C)C)CC2=O)c1 [XS165-77, 1-(m-tolyl)-4-(3-(trimethylsilyl)propioloyl)piperazin-2-one]	100
CN(C)C(C)(C)C#CC(=O)N1CC(C(=O)Nc2cc3ccccc3s2)C1 [XS224-107, N-(benzo[b]thiophen-2-yl)-1-(4-(dimethylamino)-4-methylpent-2-ynoyl)azetidine-3-carboxamide]	60
CC(C)c1ccc(NC(=O)C2CCN(C(=O)/C=C/CN(C)C)CC2)s1 [XS175-178, (E)-1-(4-(dimethylamino)but-2-enoyl)-N-(5-isopropylthiophen-2-yl)piperidine-4-carboxamide]	3
CN(C)C/C=C/C(=O)N1C2CCC1C(=O)N(c1ccc(-c3ccccc3)s1)C2 (stereo not drawn) [XS190-45, (E)-8-(4-(dimethylamino)but-2-enoyl)-3-(5-phenylthiophen-2-yl)-3,8-diazabicyclo[3.2.1]octan-2-one]	90
Cc1ccc(N2CCN(C(=O)/C=C/CN(C)C)CC2=O)o1 [XS165-100, (E)-4-(4-(dimethylamino)but-2-enoyl)-1-(5-methylfuran-2-yl)piperazin-2-one]	25
C=C(C#N)CN1CCN(c2ccc(C)s2)C(=O)C1 [XS185-87, 2-((4-(5-methylthiophen-2-yl)-3-oxopiperazin-1-yl)methyl)acrylonitrile]	1
CC(C)c1ccc(NC(=O)C2CCN(C(=O)CCl)CC2)s1 [XS185-6, 1-(2-chloroacetyl)-N-(5-isopropylthiophen-2-yl)piperidine-4-carboxamide]	100
Cc1ccc(N(C)C(=O)CCN(C)C(=O)/C=C/CN(C)C)s1 [XS175-160, (E)-4-(dimethylamino)-N-methyl-N-(3-(methyl(5-methylthiophen-2-yl)amino)-3-oxopropyl)but-2-enamide]	<1
CN(C)CC#CC(=O)N1CC(C)(C(=O)Nc2cc3ccccc3s2)C1 [XS209-175, N-(benzo[b]thiophen-2-yl)-1-(4-(dimethylamino)but-2-ynoyl)-3-methylazetidine-3-carboxamide]	90
Cc1sccc1N1CCN(C(=O)/C=C/CN(C)C)CC1=O [XS175-67, (E)-4-(4-(dimethylamino)but-2-enoyl)-1-(2-methylthiophen-3-yl)piperazin-2-one]	60
Cc1ccc(NC(=O)C2(O)CN(C(=O)C#CCN(C)C)C2)s1 [XS209-99, 1-(4-(dimethylamino)but-2-ynoyl)-3-hydroxy-N-(5-methylthiophen-2-yl)azetidine-3-carboxamide]	98
C=CC(=O)N1CCN(c2cccc(C)n2)C(=O)C1 [XS159-90, 4-acryloyl-1-(6-methylpyridin-2-yl)piperazin-2-one]	<5
Cc1ccc(N2CCN(C(=O)/C(C#N)=C/C(C)(C)C)CC2=O)s1 [XS165-177, (E)-4,4-dimethyl-2-(4-(5-methylthiophen-2-yl)-3-oxopiperazine-1-carbonyl)pent-2-enenitrile]	10
Cc1cccc(N2CC3CCC(C2)N3C(=O)CCl)n1 [XS165-121, 2-chloro-1-(3-(6-methylpyridin-2-yl)-3,8-diazabicyclo[3.2.1]octan-8-yl)ethan-1-one]	100

Continued, values first:

% of OTUB1 modified [%]	SMILES
20	Cc1ocnc1C(=O)N1CC2CC(C1)N2C(=O)/C=C/CN(C)C [XS190-137, (E)-4-(dimethylamino)-1-(3-(5-methyloxazole-4-carbonyl)-3,6-diazabicyclo[3.1.1]heptan-6-yl)but-2-en-1-one]
98	Cc1ccc(N2CC3CCC(C2=O)N3C(=O)/C=C/CN(C)C)s1 (stereo not drawn) [XS185-75, (E)-8-(4-(dimethylamino)but-2-enoyl)-3-(5-methylthiophen-2-yl)-3,8-diazabicyclo[3.2.1]octan-2-one]
90	CC(=O)N1CCC(c2ccc(C(=O)N3CC4CC(C3)N4C(=O)/C=C/CN(C)C)s2)CC1 [XS197-72, (E)-1-(3-(5-(1-acetylpiperidin-4-yl)thiophene-2-carbonyl)-3,6-diazabicyclo[3.1.1]heptan-6-yl)-4-(dimethylamino)but-2-en-1-one]
95	Cc1cnc(N2CC3CCC(C2=O)N3C(=O)/C=C/CN(C)C)s1 (stereo not drawn) [XS190-183, (E)-8-(4-(dimethylamino)but-2-enoyl)-3-(5-methylthiazol-2-yl)-3,8-diazabicyclo[3.2.1]octan-2-one]
45	COCc1ccc(C(=O)N2CC3CC(C2)N3C(=O)/C=C/CN(C)C)s1 [XS190-138, (E)-4-(dimethylamino)-1-(3-(5-(methoxymethyl)thiophene-2-carbonyl)-3,6-diazabicyclo[3.1.1]heptan-6-yl)but-2-en-1-one]
80	CC(=O)N1CCN(c2ccc(C(=O)N3CC4CC(C3)N4C(=O)/C=C/CN(C)C)s2)CC1 [XS209-184, (E)-1-(3-(5-(4-acetylpiperazin-1-yl)thiophene-2-carbonyl)-3,6-diazabicyclo[3.1.1]heptan-6-yl)-4-(dimethylamino)but-2-en-1-one]
60	Cc1ccc(C(=O)N2CC(NC(=O)C#CC(C)(C)N(C)C)C2)s1 [XS224-145, 4-(dimethylamino)-4-methyl-N-(1-(5-methylthiophene-2-carbonyl)azetidin-3-yl)pent-2-ynamide]
90	Cc1ccc(C(=O)N2CC3CC(C2)N3C(=O)/C=C/CN(C)C)s1 [XS185-72, (E)-4-(dimethylamino)-1-(3-(5-methylthiophene-2-carbonyl)-3,6-diazabicyclo[3.1.1]heptan-6-yl)but-2-en-1-one]
92	CC(=O)Nc1ccc2sc(C(=O)N3CC4CC(C3)N4C(=O)/C=C/CN(C)C)cc2c1 [XS190-59, (E)-N-(2-(6-(4-(dimethylamino)but-2-enoyl)-3,6-diazabicyclo[3.1.1]heptane-3-carbonyl)benzo[b]thiophen-5-yl)acetamide]
1	Cc1ccc(N2CC3(CCN(C(=O)/C=C/CN(C)C)CC3)C2)s1 [XS185-109, (E)-4-(dimethylamino)-1-(2-(5-methylthiophen-2-yl)-2,7-diazaspiro[3.5]nonan-7-yl)but-2-en-1-one]
80	CN(C)C/C=C/C(=O)N1C2CC1CN(C(=O)c1ccc(C#CCO)s1)C2 [XS197-94, (E)-4-(dimethylamino)-1-(3-(5-(3-hydroxyprop-1-yn-1-yl)thiophene-2-carbonyl)-3,6-diazabicyclo[3.1.1]heptan-6-yl)but-2-en-1-one]
20	Cc1ccc(C(=O)N2CC3CCC(C2)N3C(=O)/C=C/CN(C)C)s1 [XS185-70, (E)-4-(dimethylamino)-1-(3-(5-methylthiophene-2-carbonyl)-3,8-diazabicyclo[3.2.1]octan-8-yl)but-2-en-1-one]
75	Cc1ccc(C(=O)N2CC3CC(C2)N3C(=O)C#CC(C)(C)N(C)C)s1 [XS209-75, 4-(dimethylamino)-4-methyl-1-(3-(5-methylthiophene-2-carbonyl)-3,6-diazabicyclo[3.1.1]heptan-6-yl)pent-2-yn-1-one]
